The values below come from patent US8318741B2, “Therapeutic compositions and methods” (The Texas A & M University System, priority 2005, dated 2012).

Like-named read-outs stand apart in the source and are kept apart here. Marks after values point to notes of the source that are not given here. Where only a bound is given, the exact number is not on record here.

In data set [1] the test system is mice. The experiment in a line: LD50 determination / acute oral toxicity. In kind it is in vivo. The protocol: LD50 determination: For each dose, 20 mice of either sex, weighing 18-20 g were used to determined the LD50 according to the method of Litchfield & Wilcoxon, J. Pharmacol. Exp. Ther. 96:99-113 (1949). Animals were housed in an animal room at 25° C. and 70% relative humidity. The light cycle was set for 12 h light and 12 h darkness.

Data set [2] has as its system guinea pigs. As to conditions: known before the Draize test; cited from earlier work.
Data set [3] has as its system trabeculectomy failure caused by inflammation. The arrangement: species or system Dutch Belted rabbits. The following applies: rabbit, in vivo.
Data set [4] concerns choroidal neovascularization in rat eyes.
The test system of data set [5] is carrageenin induced inflammation. The experiment in a line: Carrageenin-induced inflammation (paw edema). The data set is classed as in vivo, Sprague Dowley rats. The procedure:
Forty female Sprague Dowley rats weighing 164±16 g were used for the experiments. The test and control groups were assigned randomly. Carrageenin (0.1 mL of 1% solution) was injected into the plantar surface of the rat hind paw to induce inflammation. Ten minutes before carrageenin injection, 8 mL of water administered ig. […] The changes in volume of the inflamed edematous foot were measured by the volume of water displaced and recorded at 0, 0.5, 1, 2, 4, and 6 h after the carrageenin injection.

Data set [6] relates to ocular hypertensive rabbit eyes. The experiment in a line: Choroidal blood flow in ocular hypertensive rabbit eyes (colored microspheres). The data set is classed as in vivo, New Zealand white rabbits. As to conditions: for Choroidal Blood Flow, 30 min / Choroidal Blood Flow, 60 min / Choroidal Blood Flow, 120 min / Choroidal Blood Flow, 180 min / Time after administration over which the action on choroidal blood flow lasted: 50 μl, 1% topically; for Choroidal Blood Flow, 30 min / Choroidal Blood Flow, 60 min / Choroidal Blood Flow, 120 min / Choroidal Blood Flow, 180 min: vehicle controls at 100%, mean ± SD, N = 6.

For data set [7], the system named is rat eyes. The experiment in a line: Retinal function recovery after ischemic insult in rat eyes (ERG b-wave). As to conditions: 10 mg/kg ip; for Retinal Function Recovery After Ischemic Insult, Treated: Mean ± SD, N = 6; for Retinal Function Recovery, Net increase (%): treated versus control.
In data set [8] the test system is IL-1 induced uveitis. As to the kind of experiment: Interleukin-1 induced uveitis. In kind it is in vivo, Sprague-Dawley rats. The following applies: 20 mg/kg t.i.d.
Where [9] appears, read: at various dose levels, AMD rat model.
The mark [10] stands for this setting: N-nitro-azoles and C-nitropyrazoles, 30 min.
The mark [11] stands for this setting: N-nitro-azoles and C-nitropyrazoles.
The mark [12] stands for this setting: N-Nitropyrazoles and C-Nitropyrazoles, b-wave recovery after 30 min ischemia.
Setting [13] is: N-Nitropyrazoles and C-Nitropyrazoles.
[14] abbreviates: Flavonoids, 30 min after administration.

Take `CC1(Br)CSC(=Nc2ccccc2)N(c2ccccc2)C1=O` (stereo not shown) [CK-17, 5-bromo-5-methyl-3-phenyl-2-phenylimino-1,3-thiazinan-4-one]: in data set [1] (20 g/kg given orally, observed at least 7 days), the Toxic response entry was “did not cause any toxic response”. Moreover, in data set [1] (orally, extrapolated to man), the “LD50 equivalent for man” value is reported as ≥ 1,400 g/70 kg. The Skin irritation entry in data set [2] is on record as “did not produce skin irritation”. For the same compound, in data set [3], the “Delay of trabeculectomy failure” value is reported as “prolonged the appearance of trabeculectomy failure” and the “Delay of trabeculectomy failure relative to prednisolone” value was “more effective than prednisolone”. For the same compound, the “Effective dose to inhibit CNV formation” value in data set [4] (rat, in vivo, ip) came to 30 mg/kg. Moreover, in data set [5] (carrageenin induced inflammation), the “Potency relative to aspirin” value is given as “about 10 times”. Moreover, the “Inhibition of carrageenin induced inflammation” value in data set [5] (ip 3 times before carrageenin) was “very effective in inhibiting carrageenin induced inflammation”.
With `CC(C)(C)NC[C@@H](O)COc1nsnc1N1CCOCC1` [D-Timolol, (2R)-1-[(4-morpholin-4-yl-1,2,5-thiadiazol-3-yl)oxy]-3-(tert-butylamino)propan-2-ol], the “Inhibition of CNV formation” value is listed as “effective in inhibiting some CNV formation but not as potent as hydralazine or guanabenz” in data set [4] (15 mg/kg i.p. once a day for 4 weeks) and “potent inhibition of CNV formation” in data set [4] (setting [9]).
In the case of `CONC(=O)c1ccn([N+](=O)[O-])n1` [DN-6, N-methoxy-1-nitro-1H-pyrazole-3-carboxamide], the “Choroidal Blood Flow, 30 min” value in data set [6] (setting [10]) was 56.9 ± 17.5^e %. In addition, in data set [6] (setting [11]), the “Choroidal Blood Flow, 60 min” value was found to be 61.8 ± 20.9 %; the “Choroidal Blood Flow, 120 min” value came to 88.3 ± 34.1 %; the “Choroidal Blood Flow, 180 min” value was 128.5 ± 60.0 %. Besides, the “Retinal Function Recovery After Ischemic Insult, Treated” value in data set [7] (setting [12]) was found to be 64.0 ± 24.9 %. Moreover, the “Retinal Function Recovery, Net increase (%)” value in data set [7] (setting [13]) was 94.5%.
On to `O=C(O)c1ccn([N+](=O)[O-])n1` [DN-7, 1-nitro-1H-pyrazole-3-carboxylic acid], for which, in data set [6] (setting [10]), the “Choroidal Blood Flow, 30 min” value was 42.0 ± 13.7%. In data set [6] (setting [11]), the “Choroidal Blood Flow, 60 min” value came to 57.2 ± 3.7 %; the “Choroidal Blood Flow, 120 min” value turned out to be 80.5 ± 23.1 %; the “Choroidal Blood Flow, 180 min” value was 87.3 ± 29.6 %. The “Retinal Function Recovery After Ischemic Insult, Treated” value in data set [7] (setting [12]) was 71.4 ± 20.2 %. The “Retinal Function Recovery, Net increase (%)” value in data set [7] (setting [13]) was 117.0%.
With `NC(N)=NN=Cc1c(Cl)cccc1Cl` [Guanabenz, 2-[(2,6-dichlorophenyl)methylideneamino]guanidine], the “Inhibition of CNV formation” value in data set [4] (20 mg/kg i.p. once a day for 4 weeks, eight laser lesions) is listed as “All eight CNV formations were inhibited”; in data set [4] (20 mg/kg i.p. once a day for 4 weeks, eight laser lesions, listed as guanabenz), “inhibition of CNV formation”; in data set [4] (setting [9]), “potent inhibition of CNV formation”.
As for `NNc1nncc2ccccc12` [Hydralazine, phthalazin-1-ylhydrazine], the “Inhibition of CNV formation” value in data set [4] (5 mg/kg i.p. once a day for 4 weeks, eight laser lesions) is given as “four out of eight”; in data set [4] (10 mg/kg i.p., eight laser lesions), “inhibited all CNV formation effectively”; in data set [4] (10 mg/kg i.p., eight laser lesions, listed as hydralazine), “inhibition of CNV formation”; in data set [4] (setting [9]), “potent inhibition of CNV formation”.
`O=C1CC(c2ccc(O)cc2)Oc2cc(O)cc(O)c21` (stereo not shown) [Naringenin, 5,7-dihydroxy-2-(4-hydroxyphenyl)chroman-4-one]: in data set [6], the “Time after administration over which the action on choroidal blood flow lasted” value is on record as “at least 2 hrs”. Further, the “Choroidal Blood Flow, 30 min” value in data set [6] (setting [14]) was 102.5 ± 22.0^e* %. For the same compound, in data set [6] (Flavonoids), the “Choroidal Blood Flow, 60 min” value is 226.1 ± 55.0 %; the “Choroidal Blood Flow, 120 min” value was 124.2 ± 74.5 %; the “Choroidal Blood Flow, 180 min” value is listed as 137.4 ± 712%. For the same compound, in data set [6] (after drug administration), the “Onset / latent period of the increase of choroidal blood flow” value turned out to be 30 min and the “Time of peak effect on choroidal blood flow” value was found to be 60 min. Moreover, in data set [6] (at the peak (60 min after drug administration)), the “Increase of choroidal blood flow at the peak, of the original blood flow” value is recorded as “more than 200%”. Moreover, in data set [4] (30 mg/kg i.p., eight laser lesions), the “Inhibition of CNV formation” value is “marked inhibition of CNV formation”. Besides, the “Inhibition of CNV formation” value in data set [4] (setting [9]) is “potent inhibition of CNV formation”. Further, in data set [7] (Flavonoids, b-wave recovery relative to original level after 30 min ischemia), the “Retinal Function Recovery After Ischemic Insult, Treated” value is given as 54.0 ± 17.8 %. In addition, the “Retinal Function Recovery, Net increase (%)” value in data set [7] (Flavonoids) amounted to 66.1%.
Turning to `O=c1c(-c2ccc(O)cc2)coc2c([C@@H]3O[C@H](CO)[C@@H](O)[C@H](O)[C@H]3O)c(O)ccc12` [Puerarin], the “Time after administration over which the action on choroidal blood flow lasted” value in data set [6] is over 3 h. The “Choroidal Blood Flow, 30 min” value in data set [6] (setting [14]) came to 30.9 ± 7.7%. Further, in data set [6] (Flavonoids), the “Choroidal Blood Flow, 60 min” value amounted to 114.9 ± 21.5 %; the “Choroidal Blood Flow, 120 min” value is 160.8 ± 70.7 %; the “Choroidal Blood Flow, 180 min” value amounted to 127.4 ± 65.5 %. Moreover, in data set [6] (after administration), the “Start of action on choroidal blood flow” value is 1 h. The “Retinal Function Recovery After Ischemic Insult, Treated” value in data set [7] (Flavonoids, b-wave recovery relative to original level after 30 min ischemia, 10 mg/kg) amounted to 90.0 ± 17.2 %. The “Retinal Function Recovery After Ischemic Insult, Treated” value in data set [7] (Flavonoids, b-wave recovery relative to original level after 30 min ischemia, listed as puerarin, 10 mg/kg) turned out to be 90%. Also, the “Retinal Function Recovery, Net increase (%)” value in data set [7] (Flavonoids) stood at 190.3%.
For the compound `C[C@]12C=CC(=O)C=C1CC[C@@H]1[C@@H]2[C@@H](O)C[C@@]2(C)[C@H]1CC[C@]2(O)C(=O)CO` [prednisolone], in data set [4] (i.p.), the “Minimal dose required to produce inhibition of CNV formation” value came to 3 mg/kg. Moreover, the “Blockade of IL-1 induced uveitis” value in data set [8] was “blocked effectively”.
